Laboratory results published in ChEMBL document CHEMBL4418478, “2,4,5-trisubstituted thiazole compounds,preparation methods,pharmaceutical compositions and medical uses thereof” (2016).

What follows are compounds tested against Phospholipid transfer protein (Homo sapiens) (UniProt P55058) (assay: Inhibition of PLTP in plasma (unknown origin) at 150 uM using liver phospholipid, phospholipids liposome and HDL and TSE incubated for 1 hr relative to control).
Phospholipid transfer protein (Homo sapiens), sequence (P55058 whole entry): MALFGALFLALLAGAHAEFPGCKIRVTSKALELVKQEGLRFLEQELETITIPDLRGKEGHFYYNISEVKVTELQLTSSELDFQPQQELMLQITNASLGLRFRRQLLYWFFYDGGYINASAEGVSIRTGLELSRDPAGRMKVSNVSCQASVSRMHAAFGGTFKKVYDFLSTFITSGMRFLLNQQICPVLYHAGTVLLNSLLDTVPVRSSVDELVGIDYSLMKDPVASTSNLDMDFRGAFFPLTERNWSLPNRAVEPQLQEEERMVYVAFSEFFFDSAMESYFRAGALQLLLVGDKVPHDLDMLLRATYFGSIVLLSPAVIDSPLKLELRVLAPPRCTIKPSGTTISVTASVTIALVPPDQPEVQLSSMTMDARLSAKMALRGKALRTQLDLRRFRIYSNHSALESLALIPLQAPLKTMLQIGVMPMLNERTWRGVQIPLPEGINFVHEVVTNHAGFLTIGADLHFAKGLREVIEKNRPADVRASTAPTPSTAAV

inhibition, 0%:
COc1ccc(-c2nc(N)sc2CC2CCCCC2)cc1
COc1ccc(C(=O)Nc2nc(-c3ccc(O)cc3)c(Cc3ccccc3)s2)cc1
O=C(Nc1nc(-c2ccc(O)cc2)c(Cc2ccccc2)s1)c1ccc(Cl)cc1
